Data set [1] is described as follows: Stability by NMR / UV-vis. It is filed as physicochemical. The conditions noted are these: for stability in DMSO solution, NMR or UV–vis spectra: after 24 h; for stability of solid samples, NMR spectra: room temperature, protected from light, 2 years. As for the experimental part: The ligands for these complexes (Ligand-Ag1 and Ligand-Ag2 in the SI) were originally studied for their solvatochromism and were later coordinated with silver to investigate their potential antimicrobial activity.[84] The carboxylate ion is able to coordinate to silver with monodentate, chelating, and/or bridging modes. […] The stability of complexes Ag1 and Ag2 was assessed.
One concern with Pt1 is its potential stability under biological conditions. […] Future work will be aimed toward more comprehensive examinations of the chemical and biological stability of these and related compounds, as well as investigations into their mode of action.

Data set [2] deals with C. albicans (ATCC 90028). As to the kind of experiment: Galleria mellonella infection (survival) assay. It is filed as in vivo, Candida albicans in Galleria mellonella larvae. Particulars: G. mellonella inoculated with C. albicans, 10 μL compound solution, 5 days, vs untreated control. As for the experimental part: In an initial survival assay, G. mellonella larvae were inoculated with C. albicans (ATCC 90028). The larvae were then injected with 10 μL of the compound solution, and their survival was monitored for the next 5 days. Fluconazole and 10% DMSO injections were used as controls.
The globally available strains for C. albicans and C. neoformans, namely, ATCC 90028 and H99, respectively, were used to assess the antifungal potential of the panel of cobalt complex compounds in the G. mellonella insect model. Each strain was cultured on Sabouraud dextrose agar (SDA) for 24–48 h at 27 °C prior to inoculation. Yeast colonies were then suspended in a phosphate-buffered saline solution (PBS), and cells’ concentrations were adjusted using a Neubauer counting chamber to 5 × 10^7 cells for ATCC 90028 and 1 × 10^8 cells for H99. Compounds were prepared by dissolving in 100% dimethylsulfoxide (DMSO) to 4 or 10 mM depending on compound solubility before being further diluted with water to 0.4 or 1 mM for injection into larvae.
Each group of larvae was subsequently incubated at 37 °C for 2 h in 90 mm Petri dishes. After incubation, larvae were injected with 10 μL of the compound into the last right pro-leg and returned to Petri dishes to incubate at 37 °C for 5 days. In addition to the panel of metal compounds, fluconazole (FLC) was included as a positive control (1 and 0.4 mM) and reference antifungal. Larvae inoculated with just the fungal strains and the fungal strains with 10% DMSO were also included as comparison groups. Larvae injected concurrently with PBS instead of fungal inoculum and compounds were used as negative controls. All larvae were checked daily for survival.

Another data set deals with MRSA. The arrangement: method as in PMID 34018686. The conditions noted are these: G. mellonella infected with MRSA; cited from earlier work.
The test system of data set [3] is C. albicans (ATCC 90028). Description: Galleria mellonella infection (log CFU reduction) assay. Particulars: 1 mM, 10 μL; Pt1 19 mg/kg, Pt2 28 mg/kg, fluconazole 12 mg/kg; 24 h at 37 °C; vs 10% DMSO control. Format: in vivo, Candida albicans in Galleria mellonella larvae.
Procedure: To quantify the possible protective effect of Pt1 and Pt2 in G. mellonella challenged with C. albicans, we conducted a CFU reduction assay with these compounds. Briefly, G. mellonella larvae were inoculated with C. albicans (ATCC 90028) and incubated for 2 h at 37 °C. The larvae were then injected with 10 μL of the corresponding compound solution (1 mM) or control (same concentration and injection volume) and incubated for 24 h at 37 °C. The larvae were then anesthetized, macerated, and serially diluted onto SDA (Sabouraud dextrose agar) plates. After 48 h of incubation, the CFUs were counted.
A log CFU reduction assay was conducted for two compounds and two control groups. […] Fluconazole (1 mM) and 10% DMSO were used once again as the control groups. Fifteen G. mellonella larvae (200–250 mg) per test group were selected and inoculated with 10 μL of C. albicans at a concentration of 5 × 10^7 cells/mL and incubated on 90 mm Petri dishes in groups of five larvae for 2 h at 37 °C. Larvae were then subsequently injected with 10 μL of the corresponding test compound or control and returned to Petri dishes to incubate for 24 h at 37 °C.
Larvae were then anesthetized on ice for 5 to 10 min before being placed in individual prefilled 2 mL tubes with 3.0 mm diameter zirconium beads with 1000 μL of PBS. They were then macerated briefly using the BeadBug 6 Homogenizer (Benchmark Scientific, USA) in two 45 s intervals at 4350 rpm. After homogenization, serial dilutions of 1:100, 1:1000, and 1:10,000 were then made for each larva/tube, and 100 μL of the dilution was spread plated onto SDA plates with 50 μg/mL chloramphenicol. Plates were then incubated at 27 °C for 48 h before CFUs were counted.
A one-way ANOVA was conducted to compare the CFU counts for Pt1, Pt2, and both controls. After a significant difference was observed between the groups, a subsequent Tukey’s pairwise test was used to compare the individual test groups with each other.
The subject of data set [4] is HEK-293 human embryonic kidney cells ATCC CRL-1573. As for the experimental part:
The cells were incubated together with the compounds for 20 h at 37 °C in 5% CO2. […] Tamoxifen (Sigma T5648) was used as internal control on each plate.

Data set [5] concerns Acinetobacter baumannii ATCC 19606 type strain. As to the kind of experiment: CO-ADD antibacterial MIC assay. The conditions noted are these: initial CO-ADD dose-response screening; ≥80% growth inhibition. It is filed as cell-based. A digest of the protocol: (§1)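 Growth inhibition is scored by absorbance at 600 nm after bacteria at 5 × 10^5 CFU/mL in cation-adjusted Mueller Hinton broth sit with compound for 18 h at 37 °C without shaking. The MIC is taken where inhibition reaches ≥80%, equivalent to no visible growth.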

Data set [6] has as its system Escherichia coli ATCC 25922 FDA control strain. Description: CO-ADD antibacterial MIC assay. It is filed as cell-based. The conditions noted are these: initial CO-ADD dose-response screening; ≥80% growth inhibition. A digest of the protocol: as §1
The subject of data set [7] is Pseudomonas aeruginosa ATCC 27853 QC control strain. Description: CO-ADD antibacterial MIC assay. Format: cell-based. The conditions noted are these: initial CO-ADD dose-response screening; ≥80% growth inhibition. A digest of the protocol: as §1
For data set [8], the system named is methicillin-resistant Staphylococcus aureus ATCC 43300. As to the kind of experiment: CO-ADD antibacterial MIC assay. Format: cell-based. The conditions noted are these: initial CO-ADD dose-response screening; ≥80% growth inhibition. The gist of the method: as §1
Data set [9] deals with Candida glabrata ATCC 90030 NCCLS 84. As to the kind of experiment: Antifungal MIC assay, extended panel. Format: cell-based. Particulars: extended panel; 50% inhibition, MIC score 2.
For data set [10], the system named is Cryptococcus deuterogattii CBS7750 VGII; Serotype B. As to the kind of experiment: Antifungal MIC assay, extended panel. Format: cell-based. The conditions noted are these: extended panel; 50% inhibition, MIC score 2.
Data set [11] has as its system Candida tropicalis ATCC 750. As to the kind of experiment: Antifungal MIC assay, extended panel. It is filed as cell-based. Particulars: extended panel; 50% inhibition, MIC score 2.
The test system of data set [12] is Cryptococcus deuterogattii ATCC 32609 VGII. As to the kind of experiment: Antifungal MIC assay, extended panel. Format: cell-based. The conditions noted are these: extended panel; 50% inhibition, MIC score 2.
The mark [13] stands for this setting: read-out: HEK293 CC50, ranges obtained upon retesting, new batch.
Where [14] appears, read: read-out: HEK CC50, initial CO-ADD screening, 20 h.

“Also recorded” adds a separate entry of the source. Where two headings read alike, the source gives them in different places.

`C1=CCCC=CCC1.[Cl][Pt][Cl]` [Pt1]: the “stability in DMSO, 1H NMR spectrum” value in [1] (7 days at room temperature) is on record as “no changes of the ^1H NMR spectrum”. Moreover, the larva survival result in the data set with C. albicans (ATCC 90028) [2] is on record as “significant larva survival; also recorded: showed some efficacy”. For the same compound, the “reduction in bacterial load” value in the data set on MRSA is recorded as “did not elicit a significant reduction in bacterial load”. The “reduction in CFUs” value in the data set on C. albicans (ATCC 90028) [3] was 0.7 log10. Further, the values for the CC50 in [4] (setting [13]) and in data set [4] (setting [14]) were over 100 µM and over 20 µM, respectively. Besides, the “MIC Ab” value in [5] was over 20 µM. For the same compound, the “MIC Ec” value in data set [6] is over 20 µM. Moreover, the “MIC Pa” value in data set [7] is over 20 µM. Further, the “MIC MRSA (Sa)” value in data set [8] was found to be 1.25 µM.

`C1=CCCC=CCC1.[I][Pt][I]` [Pt2]: in the data set with C. albicans (ATCC 90028) [2], the larva survival result is “significant larva survival; also recorded: showed some efficacy”. Moreover, in the data set on C. albicans (ATCC 90028) [3], the “reduction in CFUs” value is “CFUs comparable to the DMSO control”. In addition, the figures for the CC50 in [4] (setting [13]) and in data set [4] (setting [14]) were over 100 µM and over 20 µM, respectively. Moreover, in [5], the “MIC Ab” value was over 20 µM. In addition, the “MIC Ec” value in [6] was over 20 µM. In data set [7], the “MIC Pa” value is over 20 µM. The “MIC MRSA (Sa)” value in data set [8] was 0.625 µM.

In the case of `COc1ccc(/C=C/C2=NN(c3ccc(C(=O)[O][Ag])cc3)C(c3ccc(OC)c(OC)c3)C2)cc1OC.COc1ccc(/C=C/C2=NN(c3ccc(C(=O)[O][Ag])cc3)C(c3ccc(OC)c(OC)c3)C2)cc1OC` (racemic) [Ag1, (Ε)-1-(4-Carboxyphenyl)-5-(3,4-dimethoxyphenyl)-3-(3,4-dimethoxystyryl)-2-pyrazoline silver(I) complex], in [1], the “stability in DMSO solution, NMR or UV–vis spectra” value is listed as “no changes” and the “stability of solid samples, NMR spectra” value is “identical NMR spectra”. Further, in data set [9], the “MIC50 Candida glabrata ATCC 90030” value was at most 0.006 µM. Further, in [10], the “MIC50 Cryptococcus deuterogattii CBS7750” value was at most 0.006 µM. The “MIC50 Candida tropicalis ATCC 750” value in [11] is at most 0.006 µM. Besides, the “HEK CC50” value in [4] (initial CO-ADD screening, 20 h) is over 32 µg/mL. The half-maximal cytotoxic concentration (CC50) in data set [4] (setting [13]) was 3 to 4 µM. For the same compound, the “MIC50 Cryptococcus deuterogattii ATCC 32609” value in [12] is at most 0.006 to 0.024 µM. The “MIC Ab” value in data set [5] was over 32 µg/mL. The “MIC Ec” value in data set [6] was over 32 µg/mL. In [7], the “MIC Pa” value is over 32 µg/mL. Besides, the “MIC MRSA (Sa)” value in data set [8] is over 32 µg/mL.

On to `CC(C)C([O][Pt][Cl])C1=CCCC=CCC1` (centres unmarked) [Pt4], for which the 50% cytotoxic concentration (CC50) was over 100 µM in data set [4] (setting [13]) and over 20 µM in data set [4] (setting [14]). In addition, in [5], the “MIC Ab” value is over 20 µM. Further, the “MIC Ec” value in data set [6] was over 20 µM. In addition, the “MIC Pa” value in [7] was over 20 µM. Also, in [8], the “MIC MRSA (Sa)” value is over 20 µM.

Turning to `Cc1ccc2ccc3ccc(C)nc3c2n1.Cc1ccc2ccc3ccc(C)nc3c2n1.O=C([O][Eu]([O]C(=O)c1ccccc1F)[O]C(=O)c1ccccc1F)c1ccccc1F` [Eu1], in data set [9], the “MIC50 Candida glabrata ATCC 90030” value was 0.012 to 0.049 µM. The “MIC50 Cryptococcus deuterogattii CBS7750” value in data set [10] fell in the range of 0.024 to 0.098 µM. In addition, the “MIC50 Candida tropicalis ATCC 750” value in [11] is at most 0.006 to 0.049 µM. Moreover, the CC50 was over 200 µM in data set [4] (setting [13]) and over 20 µM in data set [4] (setting [14]). In addition, the “cytotoxicity: none up to stated concentration” value in data set [4] (retest) was over 200 µM. In addition, the “MIC50 Cryptococcus deuterogattii ATCC 32609” value in data set [12] is recorded as 0.024 µM. For the same compound, the “MIC Ab” value in data set [5] was over 20 µM. The “MIC Ec” value in data set [6] was over 20 µM. The “MIC Pa” value in data set [7] is over 20 µM. Moreover, the “MIC MRSA (Sa)” value in data set [8] was over 20 µM.

Take `CC(=NN=C(N)[S-])C(C)=NN=C(N)[S-].O=[N+]([O-])[O-].[Co+3].c1c[nH]cn1.c1c[nH]cn1` [Co1]: the “HEK CC50” value in data set [4] (initial CO-ADD screening, 20 h) is over 32 µg/mL. In [4] (setting [13]), the CC50 was over 100 µM. Also, the “MIC Ab” value in data set [5] was over 32 µg/mL. For the same compound, in data set [6], the “MIC Ec” value is over 32 µg/mL. Further, the “MIC Pa” value in [7] is over 32 µg/mL. For the same compound, the “MIC MRSA (Sa)” value in [8] was over 32 µg/mL.

Regarding `O=C([O][Ag])c1ccc(N2N=C(/C=C/C=C/c3ccccc3)CC2/C=C/c2ccccc2)cc1.O=C([O][Ag])c1ccc(N2N=C(/C=C/C=C/c3ccccc3)CC2/C=C/c2ccccc2)cc1` (racemic) [Ag2, 1-(4-Carboxyphenyl)-3-{(1E,3E)-4-phenylbuta-1,3-dien-1-yl}-5-{(E)-styryl}-2-pyrazoline silver(I) complex], in data set [1], the “stability in DMSO solution, NMR or UV–vis spectra” value was “no changes” and the “stability of solid samples, NMR spectra” value is “identical NMR spectra”. Also, the “MIC50 Candida glabrata ATCC 90030” value in [9] was in the range of 0.006 to 0.195 µM. The “MIC50 Cryptococcus deuterogattii CBS7750” value in data set [10] is at most 0.006 to 0.049 µM. Also, the “MIC50 Candida tropicalis ATCC 750” value in [11] is at most 0.006 to 0.049 µM. Further, in data set [4] (initial CO-ADD screening, 20 h), the “HEK CC50” value was over 32 µg/mL. Also, the CC50 in data set [4] (setting [13]) lay in the range of 6 to 7 µM. In [12], the “MIC50 Cryptococcus deuterogattii ATCC 32609” value is at most 0.006 to 0.098 µM. In addition, the “MIC Ab” value in data set [5] is over 32 µg/mL. Moreover, the “MIC Ec” value in [6] was over 32 µg/mL. The “MIC Pa” value in [7] was over 32 µg/mL. Further, in [8], the “MIC MRSA (Sa)” value was over 32 µg/mL.

(Values after article PMC9597602, “Metal Complexes as Antifungals? From a Crowd-Sourced Compound Library to the First In Vivo Experiments” (JACS Au, 2022).)
